Measured values from patent publication US20220127298A1, “THERMOSPOROTHRIX HAZAKENSIS-DERIVED ANTIBACTERIALLY ACTIVE SUBSTANCE” (KENNAN EISEI KOGYO CO., LTD., priority 2019, published 2022).

Experiments:
[1] = tested on: Geobacillus stearothermophilus ATCC 7953; experiment: Antibacterial spectrum test, paper disk assay; type: cell-based; conditions: 50 μL of 1000 γ solution in methanol, LB agar, 60° C., 18 hours
Experimental: The antibacterial activity of HK-1 was assayed using a paper disk against the following bacterial bodies. A piece of ice was taken out of a glycerol stock of G. stearothermophilus stored at -80° C. and […] inoculated on the LB agar culture medium (see Example 1) with a toothpick. This was incubated at 60° C. for 18 hours. After the incubation, 1⁄2 platinum loop of the culture was harvested and suspended in 500 μL of sterile water. The bacterial suspension was diluted 10-fold with sterile water. Onto a LB agar culture medium, 100 μL of the diluted suspension was dropped and spread until it was dried up. A piece of paper disk was placed on a filter paper, onto which 50 μL of a HK-1 solution adjusted to 1000 γ with methanol was dropped and dried. Then the disk was placed on the agar culture medium coated with the bacterial body. After incubation at 60° C. for 18 hours, the diameter of the inhibition ring was measured.

[2] = tested on: Geobacillus stearothermophilus ATCC 7953; experiment: Antibacterial activity test in changing pH, paper disk assay; type: cell-based; conditions: 1000 γ in methanol, 50 μL on paper disk, 50° C., 18 hours
Experimental: Into a 50-mL Falcon tube, 20 mg of HK-1 was weighed out using an electric balance, and therein 20 mL of methanol (1000 γ) was added followed by gentle stirring. Each 3.3 mL was aliquoted to totally two 15-mL Falcon tubes. To one of them 20 μL of 1 N sodium hydroxide was added followed by gentle stirring. The pH was tested with a pH test paper. Ten (10) μL of each sample was subjected to HPLC. The HPLC analysis conditions are as follows. The stability of a compound is regarded as one of the important information for evaluating a substance. This is because, even if the external environment changes, insofar as the compound itself is stable, it can be applied in various situations, and the information leads to acquisition of biological knowledges. Therefore, the stability of the activity was examined by measuring antibacterial activities with respect to G. stearothermophilus, and B. subtilis using the solution prepared in the above “1. Antibacterial spectrum test”. (1) Each 10 mL of the (autoclave treated) LB culture medium (see Example 1) was dispensed into two long test tubes. (2) Into each long test tube, 50 μL of a commercially available G. stearothermophilus spore suspension was seeded. […] The culture medium was taken out from the incubator, and the diameter of the inhibition ring was measured with calipers (Kanon hardened stainless 150 mm).

## COc1cc(OOc2cc(OC)c3c(c2-c2c(O)c(Cl)c(C)c4c2C(O)c2c(Cl)c(O)cc(O)c2C4=O)C(OC2OC(C)C(O)C2O)c2c(Cl)c(OC)c(Cl)c(C)c2C3=O)c(-c2c(O)c(Cl)c(C)c3c2C(O)c2c(Cl)c(O)cc(O)c2C3=O)c2c1C(=O)c1c(C)c(Cl)c(OC)c(Cl)c1C2OC1OC(C)C(O)C1O (stereo not drawn) [HK-1]
[1]
  inhibition ring diameter: 34.0 mm
[2]; solution with pH adjusted to 9
  inhibition ring diameter: 22.6 mm
[2]; solution with pH not adjusted
  inhibition ring diameter: 21.9 mm
